# Measured values as given in US9145415B2, “Nitrogen-containing heterocyclic compound or salt thereof” (FUJIFILM Corporation, priority 2012, dated 2015).
# Where two headings read alike, the source gives them in different places.
# Experiments:
# [1] = target: T1, human FLT3 protein (FLT3 (WT)) (Homo sapiens, UniProt P36888); assay: FLT3 inhibition test (FLT3 enzyme inhibition, time-resolved fluorescence of substrate peptide phosphorylation); type: biochemical; conditions: read-out: FLT3 (WT) enzyme inhibition activity
# T1 construct: human FLT3 protein (intracellular region, 564 to 993 aa); GST; purchased Carna Biosciences; host or cells: baculovirus expression system
# T1 sequence (P36888 564-993): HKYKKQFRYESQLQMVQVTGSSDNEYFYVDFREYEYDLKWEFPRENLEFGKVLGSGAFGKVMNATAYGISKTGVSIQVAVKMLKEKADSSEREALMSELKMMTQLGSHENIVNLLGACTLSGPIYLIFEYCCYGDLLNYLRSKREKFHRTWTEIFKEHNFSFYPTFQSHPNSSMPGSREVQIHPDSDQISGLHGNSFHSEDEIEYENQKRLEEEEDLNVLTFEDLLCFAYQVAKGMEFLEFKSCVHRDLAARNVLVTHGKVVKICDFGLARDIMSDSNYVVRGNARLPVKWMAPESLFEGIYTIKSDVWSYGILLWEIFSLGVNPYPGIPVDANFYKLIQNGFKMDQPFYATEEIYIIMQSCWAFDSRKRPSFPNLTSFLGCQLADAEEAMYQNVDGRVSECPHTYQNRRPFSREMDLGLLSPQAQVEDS
# Outline: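 Wild-type human FLT3 (1.2 μg) pre-incubated with compound 15 min at 25° C in 100 mM HEPES pH 7.5, 10 mM MgCl2, 25 mM NaCl, 1 mM DTT. Reaction started with substrate peptide and ATP (final 50 μM), run 30 min at 25° C; phosphorylation read by time-resolved fluorescence.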
# MV4-11 cells = assay: Leukemia cell proliferation inhibition test (ATPlite), MV4-11; type: cell-based; conditions: Homo sapiens, read-out: MV4-11 cell proliferation inhibition effect
# Outline: (§1)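 Molm-13 or MV4-11 cells in RPMI with 10% FBS and pen/strep, seeded at 10,000 cells per well, were exposed to serially diluted compound for 72 hours at 37° C, 5% CO2. Total cellular ATP was read by luciferase luminescence. GI50 came from sigmoid fits against the 0.1% DMSO control, in duplicate.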
# Molm-13 cells = assay: Leukemia cell proliferation inhibition test (ATPlite), Molm-13; type: cell-based; conditions: Homo sapiens, read-out: MOLM13 cell proliferation inhibition effect
# Outline: as §1
# [2] = GST-fused human FLT3 (564 to 993 aa), ATP 50 μM
# [3] = MV4-11, 72 h, MV4-11, 72 hours culture, ATPlite, GI50 per method
# [4] = MOLM-13, 72 h, Molm-13, 72 hours culture, ATPlite, GI50 per method
Compound,"IC50 [1, 2]",IC50 (MV4-11 cells; [3]),IC50 (Molm-13 cells; [4]),IC50 ([1]; FLT3 (WT)),"IC50 (MV4-11 cells; MV4-11, MV4-11 cell)","IC50 (Molm-13 cells; MOLM-13, MOLM13 cell)"
CCCNc1nc(Nc2ccc(C(N)=O)cc2)ncc1C#Cc1ccc2nc(CNC(=O)/C=C/CN(C)C)[nH]c2c1 [Compound 8-9],< 10 nM,10 to 100 nM,10 to 100 nM,,,
"CCCNc1nc(Nc2ccc(C(N)=O)cc2)ncc1C#Cc1cccc(NC(=O)[C@H](C)N(C)C(=O)/C=C/CN(C)C)c1 [Compound 8-2, (S,E)-4-((5-((3-(2-(4-(Dimethylamino)-N-methyl-2-butenamido)propanamido)phenyl)ethynyl)-4-(propylamino)pyrimidin-2-yl)amino)benzamide]",< 10 nM,< 10 nM,< 10 nM,,,
"CCCNc1nc(Nc2cnc3[nH]nc(C)c3c2)ncc1C#CCCCNC(=O)[C@H](C)N(C)C(=O)/C=C/CN(C)C [Compound 22-51, (S,E)-4-(Dimethylamino)-N-methyl-N-(1-((5-(2-((3-methyl-1H-pyrazolo[3,4-b]pyridin-5-yl)amino)-4-(propylamino)pyrimidin-5-yl)-4-pentyn-1-yl)amino)-1-oxopropan-2-yl)-2-butenamide]",,,,< 10 nM,< 10 nM,< 10 nM
C[C@@H](C(=O)NCCCC#Cc1cnc(Nc2cccc(C#N)c2)nc1N1CCOCC1)N(C)C(=O)/C=C/CN(C)C [Compound 9-2],< 10 nM,10 to 100 nM,10 to 100 nM,,,
CCCNc1nc(Nc2cccc(F)c2)ncc1C#Cc1cccc(NC(=O)[C@H](C)N(C)C(=O)/C=C/CN(C)C)n1 [Compound 8-20],10 to 100 nM,10 to 100 nM,100 to 1000 nM,,,
CNc1nc(Nc2ccc3cnn(C)c3c2)ncc1C#CCCCNC(=O)[C@H](C)N(C)C(=O)/C=C/CN(C)C [Compound 10-56],< 10 nM,< 10 nM,< 10 nM,,,
C[C@@H](C(=O)NCCC(C)(C)C#Cc1cnc(Nc2ccnc(F)c2)nc1NC1CC1)N(C)C(=O)/C=C/CN(C)C [Compound 9-20],< 10 nM,< 10 nM,< 10 nM,,,
"COc1ccc(Nc2ncc(C#C[C@H]3C[C@@H](NC(=O)[C@H](C)N(C)C(=O)/C=C/CN(C)C)C3)c(NC3CC3)n2)cc1F (relative stereo) [Compound 15-10, (E)-N—((S)-1-(((1S*,3R*)-3-((4-(Cyclopropylamino)-2-((3-fluoro-4-methoxyphenyl)amino)pyrimidin-5-yl)ethynyl)cyclobutyl)amino)-1-oxopropan-2-yl)-4-(dimethylamino)-N-methyl-2-butenamide]",< 10 nM,< 10 nM,< 10 nM,,,
CCCNc1nc(Nc2cccc(F)c2)ncc1C#Cc1ccccc1CNC(=O)[C@H](C)N(C)C(=O)/C=C/CN(C)C [Compound 7-25],< 10 nM,< 10 nM,10 to 100 nM,,,
COCCCNc1nc(Nc2ccc3cnn(C)c3c2)ncc1C#CCCCNC(=O)[C@H](C)N(C)C(=O)/C=C/CN(C)C [Compound 10-59],< 10 nM,< 10 nM,< 10 nM,,,
"C=CC(=O)N[C@@H](C)C(=O)Nc1cccc(NC(=O)c2cnc(NCCc3ccncc3)nc2NCCC)c1 [Compound 1-1, (S)—N-(3-(2-(acrylylamido)propanamido)phenyl)-4-(propylamino)-2-((2-(pyridin-4-yl)ethyl)amino)pyrimidine-5-carboxamide]",< 10 nM,10 to 100 nM,10 to 100 nM,,,
"CCCNc1nc(Nc2ccc(C(N)=O)cc2)ncc1C(=O)Nc1cccc(NC(=O)[C@H](C)N(C)C(=O)/C=C/CBr)c1 [Compound 3-7, (S,E)-N-(3-(2-(4-bromo-N-methyl-2-butenamido)propanamido)phenyl)-2-((4-carbamoylphenyl)amino)-4-(propylamino)pyrimidine-5-carboxamide]",< 10 nM,10 to 100 nM,10 to 100 nM,,,
C[C@@H](C(=O)NCCCC#Cc1cnc(Nc2ccc3c(cnn3C)c2)nc1NC1CC1)N(C)C(=O)/C=C/CN(C)C [Compound 10-54],< 10 nM,< 10 nM,< 10 nM,,,
CCCNc1nc(Nc2ccc(C)cc2)ncc1C#CCCCNC(=O)[C@H](C)N(C)C(=O)/C=C/CN(C)C [Compound 12-9],< 10 nM,10 to 100 nM,10 to 100 nM,,,
C[C@@H](C(=O)NCCCC#Cc1cnc(Nc2ccc3cn[nH]c3c2)nc1NC1CC1)N(C)C(=O)/C=C/CN(C)C [Compound 10-73],< 10 nM,< 10 nM,< 10 nM,,,
"CNc1nc(Nc2ccc(F)cc2)ncc1C#CCCCNC(=O)[C@@H]1C[C@@H](OC)CN1C(=O)/C=C/CN(C)C [Compound 7-83, (2S,4R)-1-((E)-4-(Dimethylamino)-2-butenoyl)-N-(5-(2-((4-fluorophenyl)amino)-4-(methylamino)pyrimidin-5-yl)-4-pentyn-1-yl)-4-methoxypyrrolidine-2-carboxamide]",< 10 nM,< 10 nM,< 10 nM,,,
"CNc1nc(Nc2ccc(F)cc2)ncc1C#C[C@H]1C[C@@H](NC(=O)[C@H](C)N(C)C(=O)/C=C/CN(C)C)C1 [Compound 13-19, (E)-4-(Dimethylamino)-N—((S)-1-(((1S,3R)-3-((2-((4-fluorophenyl)amino)-4-(methylamino)pyrimidin-5-yl)ethynyl)cyclobutyl)amino)-1-oxopropan-2-yl)-N-methyl-2-butenamide]",< 10 nM,< 10 nM,< 10 nM,,,
C[C@@H](C(=O)NCCCC#Cc1cnc(Nc2ccc(F)nc2)nc1N1CCOCC1)N(C)C(=O)/C=C/CN(C)C [Compound 11-9],< 10 nM,10 to 100 nM,10 to 100 nM,,,
C[C@@H](C(=O)NCCCC#Cc1cnc(Nc2ccc(C#N)cc2)nc1N1CCCC(F)(F)C1)N(C)C(=O)/C=C/CN(C)C [Compound 10-44],< 10 nM,< 10 nM,< 10 nM,,,
"CCCNc1nc(Nc2cccc(Cl)c2)ncc1C#CCCCNC(=O)[C@H](C)N(C)C(=O)/C=C/CN(C)C [Compound 12-2, (S,E)-N-(1-((5-(2-((3-chlorophenyl)amino)-4-(propylamino)pyrimidin-5-yl)-4-pentyn-1-yl)amino)-1-oxopropan-2-yl)-4-(dimethylamino)-N-methyl-2-butenamide]",< 10 nM,< 10 nM,10 to 100 nM,,,
C[C@@H](C(=O)NCCCC#Cc1cnc(Nc2ccc(F)nc2)nc1NCC(F)(F)F)N(C)C(=O)/C=C/CN(C)C [Compound 10-33],< 10 nM,< 10 nM,< 10 nM,,,
C[C@@H](C(=O)NCCC(C)(C)C#Cc1cnc(Nc2ccc(C#N)cc2)nc1NC1CC1)N(C)C(=O)/C=C/CN(C)C [Compound 9-27],< 10 nM,< 10 nM,< 10 nM,,,
"CCCNc1nc(Nc2ccnc(OC)c2)ncc1C#CCCCNC(=O)[C@@H]1CCCN1C(=O)/C=C/CN(C)C [Compound 9-35, (S,E)-1-(4-(Dimethylamino)-2-butenoyl)-N-(5-(2-((2-methoxypyridin-4-yl)amino)-4-(propylamino)pyrimidin-5-yl)-4-pentyn-1-yl)pyrrolidine-2-carboxamide]",< 10 nM,< 10 nM,< 10 nM,,,
C[C@@H](C(=O)NCCCC#Cc1cnc(Nc2cccc(F)c2)nc1NC1=CC2C=CC=NC2C=C1)N(C)C(=O)/C=C/CN(C)C (stereo partly drawn) [Compound 7-7],< 10 nM,< 10 nM,< 10 nM,,,
CCCNc1nc(Nc2cnc(C)c(C)c2)ncc1C#CCCCNC(=O)[C@H](C)N(C)C(=O)/C=C/CN(C)C [Compound 21-18],10 to 100 nM,10 to 100 nM,10 to 100 nM,,,
